The source of these data is ChEMBL document CHEMBL3603732, “Synthesis, biological evaluation and molecular modeling of new tetrahydroacridine derivatives as potential multifunctional agents for the treatment of Alzheimer's disease” (Bioorg Med Chem, 2015).

For orientation: IC50 means the concentration that inhibits the measured activity by half.

Series [1] concerns the target Acetylcholinesterase (Electrophorus electricus, UniProt O42275).
Description: Inhibition of electric eel AChE using ATC iodide substrate by Ellman's assay
The next series deals with Cholinesterase (Equus caballus, UniProt P81908).
For series [2], the target named is T1, Acetylcholinesterase (Homo sapiens, UniProt P22303). Put plainly: biochemical.
Description: Inhibition of acetylcholinesterase in human erythrocytes using acetylthiocholine iodide substrate by spectrophotometric Ellman's method
Another series has as its system A549. Put plainly: Cytotoxic activity against human A549 cells assessed as reduction in cell viability incubated for 48 hrs by WST1 assay. The note with it: A549, 48 h. It is filed as cell-based. For orientation: Tetrazolium dyes change colour on reduction, which living cells bring about.
Series [3] can be described thus: Cytotoxic activity against human A549 cells assessed as cell viability at 100 nM incubated for 48 hrs by WST1 assay. It is filed as cell-based. The note with it: read-out: Activity.
Series [4] has as its target T1, Acetylcholinesterase. Nature of the series: Inhibition of AChE (unknown origin) assessed as enzyme-mediated Amyloid beta peptide (1 to 42) aggregation incubated for 5 hrs by thioflavin-T based fluorometric assay.
Series [5] relates to acetylcholinesterase. Put plainly: Selectivity index, ratio of IC50 for cytotoxic activity against human A549 cells to IC50 for acetylcholinesterase in human erythrocytes. The note with it: read-out: Ratio IC50. It is filed as toxicity, cell-based.

Sequence of Cholinesterase (P81908 whole entry): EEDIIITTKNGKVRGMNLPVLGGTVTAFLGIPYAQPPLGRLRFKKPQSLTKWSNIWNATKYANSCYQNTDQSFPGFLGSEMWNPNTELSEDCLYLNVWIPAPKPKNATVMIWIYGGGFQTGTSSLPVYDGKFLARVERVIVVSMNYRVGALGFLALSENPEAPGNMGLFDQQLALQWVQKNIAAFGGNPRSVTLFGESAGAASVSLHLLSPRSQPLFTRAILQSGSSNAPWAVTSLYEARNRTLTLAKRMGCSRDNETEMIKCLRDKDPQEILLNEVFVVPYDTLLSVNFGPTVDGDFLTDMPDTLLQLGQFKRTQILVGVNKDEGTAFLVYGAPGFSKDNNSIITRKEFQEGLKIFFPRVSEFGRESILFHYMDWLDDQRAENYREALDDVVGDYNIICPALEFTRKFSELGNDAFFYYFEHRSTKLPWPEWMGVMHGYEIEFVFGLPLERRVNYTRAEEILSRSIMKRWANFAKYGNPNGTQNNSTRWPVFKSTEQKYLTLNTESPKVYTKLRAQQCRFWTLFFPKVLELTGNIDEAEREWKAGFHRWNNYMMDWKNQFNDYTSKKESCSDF
T1 sequence (P22303 whole entry): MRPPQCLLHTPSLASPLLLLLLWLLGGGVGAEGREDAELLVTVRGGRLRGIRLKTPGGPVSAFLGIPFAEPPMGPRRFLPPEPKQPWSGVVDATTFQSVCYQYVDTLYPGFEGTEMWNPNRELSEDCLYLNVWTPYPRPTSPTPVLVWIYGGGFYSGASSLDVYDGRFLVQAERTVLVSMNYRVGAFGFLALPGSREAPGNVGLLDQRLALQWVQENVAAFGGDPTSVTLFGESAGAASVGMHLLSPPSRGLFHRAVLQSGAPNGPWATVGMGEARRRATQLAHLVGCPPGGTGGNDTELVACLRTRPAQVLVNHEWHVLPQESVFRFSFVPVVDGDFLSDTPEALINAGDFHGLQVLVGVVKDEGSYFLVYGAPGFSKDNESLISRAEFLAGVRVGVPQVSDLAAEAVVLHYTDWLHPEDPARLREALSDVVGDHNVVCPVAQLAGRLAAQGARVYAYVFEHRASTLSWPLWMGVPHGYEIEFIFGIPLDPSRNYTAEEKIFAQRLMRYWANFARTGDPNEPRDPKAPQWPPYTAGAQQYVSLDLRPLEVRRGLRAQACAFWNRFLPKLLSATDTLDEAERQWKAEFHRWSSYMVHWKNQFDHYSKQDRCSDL
Sequence of Acetylcholinesterase (Electrophorus electricus, UniProt O42275) (O42275 whole entry): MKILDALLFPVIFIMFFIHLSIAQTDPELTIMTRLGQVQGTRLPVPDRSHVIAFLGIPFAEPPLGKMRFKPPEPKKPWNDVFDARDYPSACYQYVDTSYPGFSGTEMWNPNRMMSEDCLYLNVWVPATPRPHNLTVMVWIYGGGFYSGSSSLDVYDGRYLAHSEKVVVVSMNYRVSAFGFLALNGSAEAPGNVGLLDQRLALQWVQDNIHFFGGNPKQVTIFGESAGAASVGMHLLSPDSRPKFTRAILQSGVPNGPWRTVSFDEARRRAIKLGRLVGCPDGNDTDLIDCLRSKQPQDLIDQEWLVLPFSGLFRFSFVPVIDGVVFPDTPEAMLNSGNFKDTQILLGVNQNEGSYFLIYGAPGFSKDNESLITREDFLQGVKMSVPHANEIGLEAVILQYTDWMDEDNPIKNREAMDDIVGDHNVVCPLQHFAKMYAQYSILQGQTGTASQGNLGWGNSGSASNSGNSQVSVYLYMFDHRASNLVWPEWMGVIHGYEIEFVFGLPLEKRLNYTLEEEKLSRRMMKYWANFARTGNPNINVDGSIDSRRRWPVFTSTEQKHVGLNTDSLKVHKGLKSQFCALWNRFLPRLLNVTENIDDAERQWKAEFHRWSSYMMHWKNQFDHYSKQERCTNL

With `CN(C)c1ccc(C(=O)NCCCCCCCCNc2c3c(nc4ccccc24)CCCC3)cc1`, the half-maximal inhibitory concentration (IC50) at Acetylcholinesterase [1] was found to be 0.5 nM; against Cholinesterase it was 0.7 nM; on Acetylcholinesterase [2], 77 nM.
In the same order, the values of `CN(C)c1ccc(C(=O)NCCCCCNc2c3c(nc4ccccc24)CCCC3)cc1` are 86.7 nM, 3.7 nM and 357 nM.
With `CN(C)c1ccc(C(=O)NCCCCCCCCCNc2c3c(nc4ccccc24)CCCC3)cc1`, the figures for the IC50 at Acetylcholinesterase [1], on Cholinesterase and at Acetylcholinesterase [2] were 0.5 nM, 0.7 nM and 125 nM, respectively.
In the same order, the values of `CN(C)c1ccc(C(=O)NCCCCNc2c3c(nc4ccccc24)CCCC3)cc1` are 200 nM, 7 nM and 295 nM.
In the same order, the values of `CN(C)c1ccc(C(=O)NCCCCCCNc2c3c(nc4ccccc24)CCCC3)cc1` are 0.6 nM, 1.1 nM and 64 nM.
Taken in the same sequence, the figures for `CN(C)c1ccc(C(=O)NCCCCCCCNc2c3c(nc4ccccc24)CCCC3)cc1` were 167 nM, 210 nM and 75 nM.
For the compound `CN(C)c1ccc(C(=O)NCCNc2c3c(nc4ccccc24)CCCC3)cc1`, the IC50 against Acetylcholinesterase [1] stood at 0.4 nM; with A549, 39100 nM; at Cholinesterase, 0.5 nM; against Acetylcholinesterase [2] it was 142 nM; at Acetylcholinesterase [4], 12100 nM. In addition, in series [3], the viability at 48 h, 0.1 µM amounted to 93.7%. Also, the selectivity ratio in the series on acetylcholinesterase [5] stood at 275.
As for `CN(C)c1ccc(C(=O)NCCCNc2c3c(nc4ccccc24)CCCC3)cc1`, the IC50 against Acetylcholinesterase [1] was 200 nM; with A549, 46300 nM; against Cholinesterase it was 73.3 nM; against Acetylcholinesterase [2], 19 nM. Further, the viability at 48 h, 0.1 µM in series [3] turned out to be 91.3%. Further, the selectivity ratio in the series on acetylcholinesterase [5] was found to be 2500.
